According to patent US12565491B2, “(Isopropyl-triazolyl)pyridinyl-substituted benzooxazinone or benzothiazinone derivatives and use thereof” (HK INNO.N CORPORATION, priority 2018, dated 2026):

target: T1, ASK-1 enzyme (Homo sapiens, UniProt Q99683); assay: Inhibitory ability against ASK-1 enzyme activity (ADP-Glo Kinase Assay); type: biochemical; conditions: 250 μM ATP, MBP substrate, 30° C. for 40 minutes
T1 construct: purchased Signal Chem M13-11G-10
Procedure: Experimental Example 1: Assay of Inhibitory Ability Against ASK-1 Enzyme Activity (ADP-Glo™ Kinase Assay)
In order to evaluate the inhibitory ability of the compounds of Examples 1 to 25 against ASK-1 enzyme activity, the following experiment was carried out using ADP-Glo™ (Promega, Cat. No. V9101). Each of the compounds was prepared into a solution at concentrations of 0.32 nM, 1.6 nM, 8 nM, 40 nM, 200 nM, 1,000 nM by adding a kinase buffer solution (40 mM Tris, 20 mM MgCl2, 0.1 mg/mL bovine serum albumin in H2O). Subsequently, 250 μM of ATP (Promega, Cat. No. V915A) and 0.5 g/L of MBP substrate (Signal Chem, Cat. No. 42-51N) were added thereto, and the mixture was reacted at 30° C. for 40 minutes in the presence of 15 ng of ASK-1 enzyme (Signal Chem, Cat. No. M13-11G-10). Then, the ADP-Glo™ reagent and a kinase detection reagent were sequentially added thereto and reacted for 40 minutes and 10 minutes, respectively. After completion of the reaction, luminescence was measured using a Synergy™ NEO microplate reader (BioTEK, NEOB-1311189).
The inhibitory ability of the compounds of Examples 1 to 25 against ASK-1 enzyme activity was verified by analyzing data from the measured RLU values. Specifically, the inhibitory ability against ASK-1 enzyme activity was assessed by deriving the residual activity percentage of the ASK-1 enzyme in the samples treated with the compounds at the concentration to be tested, while using the RLU value of the sample not treated with the compounds as a 100% control.

T1 sequence (Q99683 649-946 limits assumed): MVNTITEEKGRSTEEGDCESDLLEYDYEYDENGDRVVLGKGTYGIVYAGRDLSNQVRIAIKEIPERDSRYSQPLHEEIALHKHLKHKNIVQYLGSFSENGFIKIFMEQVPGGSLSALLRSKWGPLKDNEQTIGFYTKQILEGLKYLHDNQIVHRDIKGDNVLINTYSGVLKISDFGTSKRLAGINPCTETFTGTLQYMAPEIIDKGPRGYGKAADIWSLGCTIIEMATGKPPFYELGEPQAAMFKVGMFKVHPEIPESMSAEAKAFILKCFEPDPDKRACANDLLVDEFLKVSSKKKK

Question: CC(C)n1cnnc1-c1cccc(N2COc3ccc(-c4ccc(Cn5cccn5)cc4)cc3C2=O)n1 [Example 13, 6-(4-((1H-pyrazol-1-yl)methyl)phenyl)-3-(6-(4-isopropyl-4H-1,2,4-triazol-3-yl)pyridin-2-yl)-2,3-dihydro-4H-benzo[e][1,3]oxazin-4-one] was tested. Which IC50 did it give?
Answer: 46.4 nM

Question: CC(C)n1cnnc1-c1cccc(N2CSc3ccc(-c4cnn(C5CC5)c4)cc3C2=O)n1 [Example 24, 6-(1-cyclopropyl-1H-pyrazol-4-yl)-3-(6-(4-isopropyl-4H-1,2,4-triazol-3-yl)pyridin-2-yl)-2,3-dihydro-4H-benzo[e][1,3]thiazin-4-one] was tested. Which IC50 did it give?
Answer: 26.2 nM

Question: For Cc1ncc(-c2ccc3c(c2)C(=O)N(c2cccc(-c4nncn4C(C)C)n2)CS3)cn1 [Example 25, 3-(6-(4-isopropyl-4H-1,2,4-triazol-3-yl)pyridin-2-yl)-6-(2-methylpyrimidin-5-yl)-2,3-dihydro-4H-benzo[e][1,3]thiazin-4-one], which IC50 is on record?
Answer: 76.8 nM

Question: For Cc1cc2c(cc1-c1cnn(C3CCOC3)c1)C(=O)N(c1cccc(-c3nncn3C(C)C)n1)CO2 (stereo not shown) [Example 18, 3-(6-(4-isopropyl-4H-1,2,4-triazol-3-yl)pyridin-2-yl)-7-methyl-6-(1-(tetrahydrofuran-3-yl)-1H-pyrazol-4-yl)-2,3-dihydro-4H-benzo[e][1,3]oxazin-4-one], which IC50 is on record?
Answer: 10.6 nM

Question: For CC(C)n1cnnc1-c1cccc(N2COc3ccc(-c4cnn(CC5CC5)c4)cc3C2=O)n1 [Example 1, 6-(1-(cyclopropylmethyl)-1H-pyrazol-4-yl)-3-(6-(4-isopropyl-4H-1,2,4-triazol-3-yl)pyridin-2-yl)-2,3-dihydro-4H-benzo[e][1,3]oxazin-4-one], which IC50 is on record?
Answer: 9.3 nM

Question: CC(C)n1cnnc1-c1cccc(N2COc3ccc(-c4ccc(C5(C#N)CC5)cc4)cc3C2=O)n1 [Example 12, 1-(4-(3-(6-(4-isopropyl-4H-1,2,4-triazol-3-yl)pyridin-2-yl)-4-oxo-3,4-dihydro-2H-benzo[e][1,3]oxazin-6-yl)phenyl) cyclopropanecarbonitrile] was tested. Which IC50 did it give?
Answer: 17 nM

Question: With CC(C)n1cnnc1-c1cccc(N2CSc3ccc(-c4cnn(CC5CC5)c4)cc3C2=O)n1 [Example 21, 6-(1-(cyclopropylmethyl)-1H-pyrazol-4-yl)-3-(6-(4-isopropyl-4H-1,2,4-triazol-3-yl)pyridin-2-yl)-2,3-dihydro-4H-benzo[e][1,3]thiazin-4-one] as the compound, how does the IC50 read?
Answer: 7.3 nM

Question: Cc1cc2c(cc1-c1cnn(CC3CC3)c1)C(=O)N(c1cccc(-c3nncn3C(C)C)n1)CO2 [Example 14, 6-(1-(cyclopropylmethyl)-1H-pyrazol-4-yl)-3-(6-(4-isopropyl-4H-1,2,4-triazol-3-yl)pyridin-2-yl)-7-methyl-2,3-dihydro-4H-benzo[e][1,3]oxazin-4-one] was tested. Which IC50 did it give?
Answer: 4.4 nM

Question: Which IC50 does the source give for CC(C)n1cnnc1-c1cccc(N2COc3ccc(-c4cnn(C(F)F)c4)cc3C2=O)n1 [Example 7, 6-(1-(difluoromethyl)-1H-pyrazol-4-yl)-3-(6-(4-isopropyl-4H-1,2,4-triazol-3-yl)pyridin-2-yl)-2,3-dihydro-4H-benzo[e][1,3]oxazin-4-one] here?
Answer: 33.1 nM

Question: How did the IC50 turn out when CC(C)Cn1cc(-c2ccc3c(c2)C(=O)N(c2cccc(-c4nncn4C(C)C)n2)CO3)cn1 [Example 9, 6-(1-isobutyl-1H-pyrazol-4-yl)-3-(6-(4-isopropyl-4H-1,2,4-triazol-3-yl)pyridin-2-yl)-2,3-dihydro-4H-benzo[e][1,3]oxazin-4-one] was run?
Answer: 11 nM

Question: CC(C)n1cnnc1-c1cccc(N2COc3ccc(-n4cnc(C5CC5)c4)cc3C2=O)n1 [Example 19, 6-(4-cyclopropyl-1H-imidazol-1-yl)-3-(6-(4-isopropyl-4H-1,2,4-triazol-3-yl)pyridin-2-yl)-2,3-dihydro-4H-benzo[e][1,3]oxazin-4-one] was tested. Which IC50 did it give?
Answer: 4 nM

Question: With CCOC(C)n1cc(-c2ccc3c(c2)C(=O)N(c2cccc(-c4nncn4C(C)C)n2)CO3)cn1 (stereo not shown) [Example 6, 6-(1-(1-ethoxyethyl)-1H-pyrazol-4-yl)-3-(6-(4-isopropyl-4H-1,2,4-triazol-3-yl)pyridin-2-yl)-2,3-dihydro-4H-benzo[e][1,3]oxazin-4-one] as the compound, how does the IC50 read?
Answer: 29.2 nM

Question: For CC(C)n1cnnc1-c1cccc(N2COc3ccc(-c4ccc(S(C)(=O)=O)cc4)cc3C2=O)n1 [Example 2, 3-(6-(4-isopropyl-4H-1,2,4-triazol-3-yl)pyridin-2-yl)-6-(4-(methylsulfonyl)phenyl)-2,3-dihydro-4H-benzo[e][1,3]oxazin-4-one], which IC50 is on record?
Answer: 50 nM

Question: With CSc1ncc(-c2cc3c(cc2C)OCN(c2cccc(-c4nncn4C(C)C)n2)C3=O)cn1 [Example 17, 3-(6-(4-isopropyl-4H-1,2,4-triazol-3-yl)pyridin-2-yl)-7-methyl-6-(2-(methylthio)pyrimidin-5-yl)-2,3-dihydro-4H-benzo[e][1,3]oxazin-4-one] as the compound, how does the IC50 read?
Answer: 7.8 nM

Question: For CC(C)n1cnnc1-c1cccc(N2COc3ccc(-c4cnn(C5CC5)c4)cc3C2=O)n1 [Example 8, 6-(1-cyclopropyl-1H-pyrazol-4-yl)-3-(6-(4-isopropyl-4H-1,2,4-triazol-3-yl)pyridin-2-yl)-2,3-dihydro-4H-benzo[e][1,3]oxazin-4-one], which IC50 is on record?
Answer: 13.8 nM

Question: For CC(C)n1cc(-c2ccc3c(c2)C(=O)N(c2cccc(-c4nncn4C(C)C)n2)CS3)cn1 [Example 22, 6-(1-isopropyl-1H-pyrazol-4-yl)-3-(6-(4-isopropyl-4H-1,2,4-triazol-3-yl)pyridin-2-yl)-2,3-dihydro-4H-benzo[e][1,3]thiazin-4-one], which IC50 is on record?
Answer: 6.1 nM

Question: CC(C)n1cnnc1-c1cccc(N2COc3ccc(-c4cnn(C5CCOC5)c4)cc3C2=O)n1 (stereo not shown) [Example 5, 3-(6-(4-isopropyl-4H-1,2,4-triazol-3-yl)pyridin-2-yl)-6-(1-(tetrahydrofuran-3-yl)-1H-pyrazol-4-yl)-2,3-dihydro-4H-benzo[e][1,3]oxazin-4-one] was tested. Which IC50 did it give?
Answer: 38.8 nM

Question: CCOC(C)n1cc(-c2cc3c(cc2C)OCN(c2cccc(-c4nncn4C(C)C)n2)C3=O)cn1 (stereo not shown) [Example 20, 6-(1-(1-ethoxyethyl)-1H-pyrazol-4-yl)-3-(6-(4-isopropyl-4H-1,2,4-triazol-3-yl)pyridin-2-yl)-7-methyl-2,3-dihydro-4H-benzo[e][1,3]oxazin-4-one] was tested. Which IC50 did it give?
Answer: 3.6 nM

Question: With CC(C)n1cnnc1-c1cccc(N2COc3ccc(Nc4nccc(C(F)F)n4)cc3C2=O)n1 [Example 10, 6-(4-(difluoromethyl)pyrimidin-2-ylamino)-3-(6-(4-isopropyl-4H-1,2,4-triazol-3-yl)pyridin-2-yl)-2,3-dihydro-4H-benzo[e][1,3]oxazin-4-one] as the compound, how does the IC50 read?
Answer: 7.2 nM

Question: Which IC50 does the source give for Cc1cc2c(cc1-c1cnn(C(C)C)c1)C(=O)N(c1cccc(-c3nncn3C(C)C)n1)CO2 [Example 15, 6-(1-isopropyl-1H-pyrazol-4-yl)-3-(6-(4-isopropyl-4H-1,2,4-triazol-3-yl)pyridin-2-yl)-7-methyl-2,3-dihydro-4H-benzo[e][1,3]oxazin-4-one] here?
Answer: 4.5 nM

Question: Cc1cc2c(cc1-c1cncnc1)C(=O)N(c1cccc(-c3nncn3C(C)C)n1)CO2 [Example 16, 3-(6-(4-isopropyl-4H-1,2,4-triazol-3-yl)pyridin-2-yl)-7-methyl-6-(pyrimidin-5-yl)-2,3-dihydro-4H-benzo[e][1,3]oxazin-4-one] was tested. Which IC50 did it give?
Answer: 20 nM

Question: How did the IC50 turn out when CC(C)n1cnnc1-c1cccc(N2CSc3ccc(-c4cnc(C5CC5)nc4)cc3C2=O)n1 [Example 23, 6-(2-cyclopropylpyrimidin-5-yl)-3-(6-(4-isopropyl-4H-1,2,4-triazol-3-yl)pyridin-2-yl)-2,3-dihydro-4H-benzo[e][1,3]thiazin-4-one] was run?
Answer: 23.1 nM

Question: With CC(C)CCn1cc(-c2ccc3c(c2)C(=O)N(c2cccc(-c4nncn4C(C)C)n2)CO3)cn1 [Example 11, 6-(1-isopentyl-1H-pyrazol-4-yl)-3-(6-(4-isopropyl-4H-1,2,4-triazol-3-yl)pyridin-2-yl)-2,3-dihydro-4H-benzo[e][1,3]oxazin-4-one] as the compound, how does the IC50 read?
Answer: 18.5 nM

Question: How did the IC50 turn out when CC(C)n1cnnc1-c1cccc(N2COc3ccc(-c4ccncc4)cc3C2=O)n1 [Example 3, 3-(6-(4-isopropyl-4H-1,2,4-triazol-3-yl)pyridin-2-yl)-6-(pyridin-4-yl)-2,3-dihydro-4H-benzo[e][1,3]oxazin-4-one] was run?
Answer: 9.1 nM

Question: How did the IC50 turn out when Cc1ccnc(Nc2ccc3c(c2)C(=O)N(c2cccc(-c4nncn4C(C)C)n2)CO3)n1 [Example 4, 3-(6-(4-isopropyl-4H-1,2,4-triazol-3-yl)pyridin-2-yl)-6-(4-methylpyrimidin-2-ylamino)-2,3-dihydro-4H-benzo[e][1,3]oxazin-4-one] was run?
Answer: 7.8 nM
